Source: ChEMBL document CHEMBL1201862, “PubChem BioAssay data set” (2004)
The source made the active and inactive calls.

Assays:
[1] = molecular target: Voltage-dependent T-type calcium channel subunit alpha-1H (Homo sapiens, UniProt O95180); format: functional;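 further: channel activity triggered by adding a high calcium stimulation buffer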
Keap1/Nrf2 = Keap1/Nrf2 (Homo sapiens, UniProt Q14145); assay: disruptors of Keap1 binding to Nrf2 peptide – biochemical, fluorescence polarization, cherry-picked samples, dose response (AID 588683)
Chain of Keap1/Nrf2 (Q16236 whole entry): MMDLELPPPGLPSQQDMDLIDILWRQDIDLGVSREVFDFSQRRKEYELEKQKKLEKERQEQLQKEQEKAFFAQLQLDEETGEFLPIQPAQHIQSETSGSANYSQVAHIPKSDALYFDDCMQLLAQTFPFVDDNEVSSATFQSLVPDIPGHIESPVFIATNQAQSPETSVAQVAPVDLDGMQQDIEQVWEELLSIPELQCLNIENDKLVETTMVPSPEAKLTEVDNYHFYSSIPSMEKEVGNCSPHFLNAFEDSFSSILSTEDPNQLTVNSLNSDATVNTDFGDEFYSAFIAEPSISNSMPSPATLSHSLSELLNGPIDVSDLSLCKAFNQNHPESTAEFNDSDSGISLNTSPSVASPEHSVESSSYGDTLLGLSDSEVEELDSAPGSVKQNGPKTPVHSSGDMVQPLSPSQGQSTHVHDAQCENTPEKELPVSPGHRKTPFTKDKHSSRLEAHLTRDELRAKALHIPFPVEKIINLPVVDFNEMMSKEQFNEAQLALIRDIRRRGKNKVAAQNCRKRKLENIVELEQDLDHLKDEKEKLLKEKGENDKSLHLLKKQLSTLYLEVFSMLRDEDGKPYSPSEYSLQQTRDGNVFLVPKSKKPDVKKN
Chain of Keap1/Nrf2 (Q14145 whole entry): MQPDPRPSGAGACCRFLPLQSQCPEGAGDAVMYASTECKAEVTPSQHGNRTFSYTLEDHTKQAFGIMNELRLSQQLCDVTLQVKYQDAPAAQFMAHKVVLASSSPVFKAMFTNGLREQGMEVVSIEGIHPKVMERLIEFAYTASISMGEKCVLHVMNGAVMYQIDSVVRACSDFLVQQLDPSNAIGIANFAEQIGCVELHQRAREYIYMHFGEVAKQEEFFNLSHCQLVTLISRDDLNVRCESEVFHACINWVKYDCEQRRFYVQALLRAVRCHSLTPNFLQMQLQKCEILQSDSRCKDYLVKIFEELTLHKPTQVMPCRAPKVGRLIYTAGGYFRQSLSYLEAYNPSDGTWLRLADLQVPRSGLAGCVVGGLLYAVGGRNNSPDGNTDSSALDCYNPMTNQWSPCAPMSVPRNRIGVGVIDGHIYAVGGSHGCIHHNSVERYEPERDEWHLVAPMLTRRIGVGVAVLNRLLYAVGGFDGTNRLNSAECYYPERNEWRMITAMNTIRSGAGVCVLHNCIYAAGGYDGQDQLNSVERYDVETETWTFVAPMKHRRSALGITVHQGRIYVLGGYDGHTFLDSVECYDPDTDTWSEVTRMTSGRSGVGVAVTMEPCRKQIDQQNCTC

ORF 73 = ORF 73 (Human herpesvirus 8, UniProt O40947); assay: KSHV LANA DNA-binding disruption – biochemical, fluorescence polarization, cherry-picked samples, dose response (AID 504725); design: species or system Human gammaherpesvirus 8;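 further: fluorescence polarization of a labeled DNA duplex reporting LANA DNA binding; potency is for inhibitors that block LANA binding to the DNA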
Chain of ORF 73 (O40947 whole entry, the tested form may be a part): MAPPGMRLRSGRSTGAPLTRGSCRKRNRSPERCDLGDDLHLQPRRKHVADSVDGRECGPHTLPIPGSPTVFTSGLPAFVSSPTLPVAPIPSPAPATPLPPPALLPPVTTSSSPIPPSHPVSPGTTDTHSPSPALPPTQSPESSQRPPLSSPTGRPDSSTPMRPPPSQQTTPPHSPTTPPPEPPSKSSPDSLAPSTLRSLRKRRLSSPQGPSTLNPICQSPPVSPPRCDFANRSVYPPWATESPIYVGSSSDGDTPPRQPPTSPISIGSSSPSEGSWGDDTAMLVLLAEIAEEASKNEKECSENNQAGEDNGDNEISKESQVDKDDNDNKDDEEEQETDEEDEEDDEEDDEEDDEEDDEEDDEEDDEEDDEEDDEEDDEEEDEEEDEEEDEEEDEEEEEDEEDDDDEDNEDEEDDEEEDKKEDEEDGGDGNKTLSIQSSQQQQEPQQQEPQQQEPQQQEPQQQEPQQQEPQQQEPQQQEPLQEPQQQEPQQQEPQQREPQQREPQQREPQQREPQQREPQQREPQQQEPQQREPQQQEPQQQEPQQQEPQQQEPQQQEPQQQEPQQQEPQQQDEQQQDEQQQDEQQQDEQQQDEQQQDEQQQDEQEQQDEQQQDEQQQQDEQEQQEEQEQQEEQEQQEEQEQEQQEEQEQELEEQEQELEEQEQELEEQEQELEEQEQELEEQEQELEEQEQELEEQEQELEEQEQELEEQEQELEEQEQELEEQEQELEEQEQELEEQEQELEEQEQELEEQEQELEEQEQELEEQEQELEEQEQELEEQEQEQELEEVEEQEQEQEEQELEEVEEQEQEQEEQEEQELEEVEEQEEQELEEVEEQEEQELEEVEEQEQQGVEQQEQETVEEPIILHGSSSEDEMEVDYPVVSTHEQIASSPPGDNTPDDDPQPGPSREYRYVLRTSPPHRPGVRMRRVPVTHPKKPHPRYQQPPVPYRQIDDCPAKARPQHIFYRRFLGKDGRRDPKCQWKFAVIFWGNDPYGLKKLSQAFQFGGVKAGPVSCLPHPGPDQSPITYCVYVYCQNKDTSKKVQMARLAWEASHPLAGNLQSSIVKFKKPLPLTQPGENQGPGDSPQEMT

[2] = molecular target: T1, RNA-binding protein pos-1 (Caenorhabditis elegans, UniProt G5EF15); assay: disruptors of C. elegans POS-1 RNA interaction – biochemical, fluorescence polarization, dose response (AID 1964);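 further: purified POS-1 fused to maltose binding protein made in E. coli; potency of compounds blocking POS-1 binding to fluorescent RNA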
T1 sequence (G5EF15 whole entry): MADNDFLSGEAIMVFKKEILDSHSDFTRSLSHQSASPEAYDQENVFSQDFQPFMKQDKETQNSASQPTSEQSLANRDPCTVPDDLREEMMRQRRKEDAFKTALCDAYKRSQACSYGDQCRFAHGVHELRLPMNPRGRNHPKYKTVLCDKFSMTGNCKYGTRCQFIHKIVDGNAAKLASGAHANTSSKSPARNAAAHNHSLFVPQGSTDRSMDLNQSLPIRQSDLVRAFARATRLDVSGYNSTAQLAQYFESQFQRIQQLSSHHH

Beta-lactamase [3] = molecular target: Beta-lactamase (Salmonella choleraesuis (strain SC-B67), UniProt Q5J463)
Chain of Beta-lactamase (Salmonella choleraesuis (strain SC-B67), UniProt Q5J463) (Q5J463 whole entry): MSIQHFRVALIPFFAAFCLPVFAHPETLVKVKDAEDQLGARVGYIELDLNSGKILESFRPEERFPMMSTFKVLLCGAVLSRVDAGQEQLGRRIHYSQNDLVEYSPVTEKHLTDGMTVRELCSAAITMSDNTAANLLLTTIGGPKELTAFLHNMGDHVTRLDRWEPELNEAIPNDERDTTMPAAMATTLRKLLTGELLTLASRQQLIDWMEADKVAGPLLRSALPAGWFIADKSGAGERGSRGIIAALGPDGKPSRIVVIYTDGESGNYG

[4] = molecular target: T2, Zinc finger protein mex-5 (Caenorhabditis elegans, UniProt Q9XUB2); assay: potency of MEX-5 RNA-binding blockers – biochemical, C. elegans, fluorescence polarization, dose response (AID 1960)
T2 sequence (Q9XUB2 whole entry): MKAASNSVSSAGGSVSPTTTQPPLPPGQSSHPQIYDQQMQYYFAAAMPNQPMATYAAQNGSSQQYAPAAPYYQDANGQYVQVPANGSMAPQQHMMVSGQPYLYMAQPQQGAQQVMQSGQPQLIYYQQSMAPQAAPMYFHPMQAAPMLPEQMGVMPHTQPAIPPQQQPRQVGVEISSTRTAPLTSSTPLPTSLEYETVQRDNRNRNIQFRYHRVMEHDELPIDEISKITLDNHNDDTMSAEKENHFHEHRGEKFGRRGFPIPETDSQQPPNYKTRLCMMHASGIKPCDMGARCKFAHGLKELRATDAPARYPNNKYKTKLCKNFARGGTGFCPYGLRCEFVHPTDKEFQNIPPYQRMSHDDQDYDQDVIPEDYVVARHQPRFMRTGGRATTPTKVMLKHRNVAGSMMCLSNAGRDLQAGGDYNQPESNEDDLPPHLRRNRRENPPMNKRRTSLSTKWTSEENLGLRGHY

Beta-lactamase [5] = molecular target: Beta-lactamase (Pseudomonas aeruginosa, UniProt Q79MP6);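 further: biochemical dose-response test of metallo-beta-lactamase enzyme inhibition, read out by epi-absorbance; purified recombinant IMP-1 metallo-beta-lactamase with nitrocefin as substrate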
Chain of Beta-lactamase (Pseudomonas aeruginosa, UniProt Q79MP6) (Q79MP6 whole entry): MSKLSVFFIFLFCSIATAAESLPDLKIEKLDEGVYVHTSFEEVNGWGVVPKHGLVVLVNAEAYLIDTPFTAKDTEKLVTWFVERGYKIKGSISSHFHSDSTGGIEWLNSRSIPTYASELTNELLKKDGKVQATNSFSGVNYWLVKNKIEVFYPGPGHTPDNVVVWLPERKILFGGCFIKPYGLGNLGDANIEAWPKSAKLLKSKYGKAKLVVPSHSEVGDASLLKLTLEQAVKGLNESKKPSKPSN

Cysteine protease ATG4B = molecular target: T3, Cysteine protease ATG4B (Homo sapiens, UniProt Q9Y4P1); format: functional;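 further: Fluorescence-based dose-response confirmation assay measuring inhibition of ATG4B activity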
T3 sequence (Q9Y4P1 whole entry): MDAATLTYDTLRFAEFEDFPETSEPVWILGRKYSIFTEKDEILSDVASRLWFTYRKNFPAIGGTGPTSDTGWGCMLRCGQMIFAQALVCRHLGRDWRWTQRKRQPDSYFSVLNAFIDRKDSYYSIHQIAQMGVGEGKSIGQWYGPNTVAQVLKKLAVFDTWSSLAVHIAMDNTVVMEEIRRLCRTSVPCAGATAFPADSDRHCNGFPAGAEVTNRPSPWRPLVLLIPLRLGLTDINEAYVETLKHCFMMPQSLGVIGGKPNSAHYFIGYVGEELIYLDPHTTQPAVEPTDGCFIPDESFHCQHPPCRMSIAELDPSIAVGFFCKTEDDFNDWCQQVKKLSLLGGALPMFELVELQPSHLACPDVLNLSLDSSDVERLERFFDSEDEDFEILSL

SUMO-activating enzyme [6] = molecular target: T4, SUMO-activating enzyme (Homo sapiens, UniProt Q9UBT2); assay: blockers of SAE1/SAE2–UBC9 SUMO transfer – biochemical, HTRF, uHTS, primary screen (AID 2006); format: protein-complex assay
T4 sequence (Q9UBE0 whole entry): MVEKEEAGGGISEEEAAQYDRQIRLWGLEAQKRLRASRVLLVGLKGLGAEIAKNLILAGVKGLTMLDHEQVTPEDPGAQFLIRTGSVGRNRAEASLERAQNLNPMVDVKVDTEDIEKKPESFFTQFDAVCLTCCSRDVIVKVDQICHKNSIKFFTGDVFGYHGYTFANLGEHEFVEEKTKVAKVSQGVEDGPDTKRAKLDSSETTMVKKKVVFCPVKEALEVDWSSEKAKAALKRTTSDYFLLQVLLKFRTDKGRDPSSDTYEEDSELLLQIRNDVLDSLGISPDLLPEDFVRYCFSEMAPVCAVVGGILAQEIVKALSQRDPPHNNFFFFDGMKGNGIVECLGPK
T4 sequence (Q9UBT2 whole entry): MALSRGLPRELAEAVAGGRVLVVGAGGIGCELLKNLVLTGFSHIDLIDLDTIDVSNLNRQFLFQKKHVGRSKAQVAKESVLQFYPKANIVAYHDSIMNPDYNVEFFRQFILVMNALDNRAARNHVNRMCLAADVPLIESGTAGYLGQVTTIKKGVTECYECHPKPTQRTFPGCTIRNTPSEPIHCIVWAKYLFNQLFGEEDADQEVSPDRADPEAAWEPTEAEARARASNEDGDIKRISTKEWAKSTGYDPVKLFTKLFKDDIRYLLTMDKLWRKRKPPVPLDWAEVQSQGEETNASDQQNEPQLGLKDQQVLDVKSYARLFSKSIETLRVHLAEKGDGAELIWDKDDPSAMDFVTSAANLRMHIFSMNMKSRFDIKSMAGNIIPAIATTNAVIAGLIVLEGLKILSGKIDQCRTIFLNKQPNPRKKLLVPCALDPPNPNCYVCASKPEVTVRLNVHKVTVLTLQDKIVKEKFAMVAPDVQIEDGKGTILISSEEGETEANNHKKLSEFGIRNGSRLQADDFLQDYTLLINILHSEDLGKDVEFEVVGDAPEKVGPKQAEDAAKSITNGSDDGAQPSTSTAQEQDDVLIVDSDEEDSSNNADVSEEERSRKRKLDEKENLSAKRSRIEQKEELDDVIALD

[7] = molecular target: DNA (cytosine-5)-methyltransferase 1 (Homo sapiens, UniProt P26358); assay: inhibition of DNA methylation by DNMT1 – biochemical, fluorescent molecular beacon, confirmation (AID 602386); format: functional
[8] = molecular target: Intestinal-type alkaline phosphatase (Homo sapiens, UniProt P09923); assay: inhibition of human intestinal alkaline phosphatase – biochemical, dose response (AID 488876); format: functional
Chain of Intestinal-type alkaline phosphatase (Homo sapiens, UniProt P09923) (P09923 whole entry): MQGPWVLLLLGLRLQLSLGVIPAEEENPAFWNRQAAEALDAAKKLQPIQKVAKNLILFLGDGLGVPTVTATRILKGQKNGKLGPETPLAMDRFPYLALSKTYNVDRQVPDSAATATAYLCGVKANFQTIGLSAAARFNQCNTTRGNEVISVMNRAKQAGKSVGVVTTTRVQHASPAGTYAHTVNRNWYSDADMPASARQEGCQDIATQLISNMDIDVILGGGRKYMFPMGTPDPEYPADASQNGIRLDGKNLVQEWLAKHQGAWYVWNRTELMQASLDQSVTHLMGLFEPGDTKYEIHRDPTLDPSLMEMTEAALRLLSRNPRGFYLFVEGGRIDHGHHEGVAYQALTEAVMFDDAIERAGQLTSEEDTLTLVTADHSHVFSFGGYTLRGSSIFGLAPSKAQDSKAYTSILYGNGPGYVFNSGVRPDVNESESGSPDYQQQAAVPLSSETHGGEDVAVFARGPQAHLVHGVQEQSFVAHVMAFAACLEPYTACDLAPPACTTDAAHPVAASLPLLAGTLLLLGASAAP

[9] = molecular target: 72 kDa type IV collagenase (Homo sapiens, UniProt P08253); assay: Dose Response validation of uHTS RPN11 inhibitor hits using a MMP-2 Fluorescence assay.; format: functional
Phospholipase A2 = Phospholipase A2 (Homo sapiens, UniProt P04054); format: functional;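 further: confirmatory dose-response counterscreen on phospholipase A2, testing hits that came from an ultra-high-throughput screen for ATG4B inhibitors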
[10] = molecular target: 26S proteasome non-ATPase regulatory subunit 14 (Homo sapiens, UniProt O00487); assay: inhibition of proteasome subunit RPN11 – biochemical, fluorescence polarization, uHTS hits, confirmation (AID 602368); format: functional
[11] = molecular target: Intestinal-type alkaline phosphatase (Mus musculus, UniProt P24822); assay: PubChem AID 488785; format: functional
[12] = molecular target: T5, Histone-lysine N-methyltransferase NSD2 (Homo sapiens, UniProt O96028); format: biochemical
T5 sequence (O96028 whole entry): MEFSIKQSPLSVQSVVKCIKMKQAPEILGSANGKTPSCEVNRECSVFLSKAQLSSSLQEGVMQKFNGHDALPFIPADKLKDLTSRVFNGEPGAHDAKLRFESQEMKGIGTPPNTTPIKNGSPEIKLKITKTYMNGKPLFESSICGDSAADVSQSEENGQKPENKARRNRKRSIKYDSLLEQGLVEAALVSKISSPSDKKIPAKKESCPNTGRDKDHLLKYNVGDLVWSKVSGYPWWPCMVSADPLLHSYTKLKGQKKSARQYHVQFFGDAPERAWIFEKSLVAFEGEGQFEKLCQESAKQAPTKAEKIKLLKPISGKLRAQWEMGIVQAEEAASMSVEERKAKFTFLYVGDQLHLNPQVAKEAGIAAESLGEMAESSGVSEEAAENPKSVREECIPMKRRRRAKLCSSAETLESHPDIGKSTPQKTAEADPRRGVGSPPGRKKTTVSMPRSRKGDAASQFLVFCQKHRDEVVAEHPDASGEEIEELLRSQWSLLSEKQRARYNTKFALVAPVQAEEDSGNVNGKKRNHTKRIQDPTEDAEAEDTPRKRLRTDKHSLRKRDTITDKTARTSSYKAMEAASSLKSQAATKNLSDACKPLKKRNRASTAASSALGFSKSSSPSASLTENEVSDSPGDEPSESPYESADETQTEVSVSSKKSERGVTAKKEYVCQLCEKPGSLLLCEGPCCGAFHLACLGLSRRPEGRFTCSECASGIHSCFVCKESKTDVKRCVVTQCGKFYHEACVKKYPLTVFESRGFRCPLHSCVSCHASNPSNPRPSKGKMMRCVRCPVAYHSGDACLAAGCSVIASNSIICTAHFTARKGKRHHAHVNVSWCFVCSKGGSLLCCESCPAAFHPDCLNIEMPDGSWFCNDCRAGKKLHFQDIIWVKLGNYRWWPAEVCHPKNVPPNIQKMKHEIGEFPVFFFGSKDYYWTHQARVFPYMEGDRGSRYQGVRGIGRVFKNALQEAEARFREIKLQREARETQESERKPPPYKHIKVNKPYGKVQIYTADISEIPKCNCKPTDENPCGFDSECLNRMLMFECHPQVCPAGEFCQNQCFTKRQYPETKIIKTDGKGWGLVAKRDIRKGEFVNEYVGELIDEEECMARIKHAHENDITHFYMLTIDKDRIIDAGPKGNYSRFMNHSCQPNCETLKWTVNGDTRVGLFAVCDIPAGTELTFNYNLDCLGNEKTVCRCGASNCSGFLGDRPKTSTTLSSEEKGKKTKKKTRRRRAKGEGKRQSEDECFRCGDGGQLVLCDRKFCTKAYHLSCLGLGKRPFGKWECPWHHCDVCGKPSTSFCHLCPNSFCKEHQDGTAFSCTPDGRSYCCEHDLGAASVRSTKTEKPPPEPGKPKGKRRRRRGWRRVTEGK

Prothrombin = Prothrombin (Bos taurus, UniProt P00735); assay: thrombin protease inhibitors – biochemical, fluorescence polarization, uHTS hits, dose response (AID 602369); format: functional
SUMO-activating enzyme [13] = molecular target: T4, SUMO-activating enzyme; assay: blockers of UBC9-mediated SUMO conjugation – biochemical, AlphaScreen, SUMOylation inhibitor project, confirmation (AID 2018); format: functional
[14] = molecular target: T6, Tyrosyl-DNA phosphodiesterase 2 (Homo sapiens, UniProt O95551); assay: potency against TDP2 phosphodiesterase activity – biochemical, epi absorbance, IC50, dose response (AID 743297)
T6 sequence (O95551 whole entry): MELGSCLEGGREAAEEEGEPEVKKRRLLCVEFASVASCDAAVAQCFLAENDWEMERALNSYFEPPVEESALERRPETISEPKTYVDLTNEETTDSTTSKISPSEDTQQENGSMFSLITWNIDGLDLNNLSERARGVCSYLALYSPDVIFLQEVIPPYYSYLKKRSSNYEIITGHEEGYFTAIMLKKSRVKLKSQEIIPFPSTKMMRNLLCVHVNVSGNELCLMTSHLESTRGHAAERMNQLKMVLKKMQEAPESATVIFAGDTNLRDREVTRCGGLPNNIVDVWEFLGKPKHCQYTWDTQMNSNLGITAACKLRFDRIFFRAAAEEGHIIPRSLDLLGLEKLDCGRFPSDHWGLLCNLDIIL

[15] = molecular target: T7, Alkaline phosphatase, tissue-nonspecific isozyme (Homo sapiens, UniProt P05186); assay: TNAP enzyme inhibition by screening hits, dose response, selectivity assay for mouse IAP inhibitor project, biochemical, human TNAP, uHTS hits (AID 488906); format: functional
T7 sequence (P05186 whole entry): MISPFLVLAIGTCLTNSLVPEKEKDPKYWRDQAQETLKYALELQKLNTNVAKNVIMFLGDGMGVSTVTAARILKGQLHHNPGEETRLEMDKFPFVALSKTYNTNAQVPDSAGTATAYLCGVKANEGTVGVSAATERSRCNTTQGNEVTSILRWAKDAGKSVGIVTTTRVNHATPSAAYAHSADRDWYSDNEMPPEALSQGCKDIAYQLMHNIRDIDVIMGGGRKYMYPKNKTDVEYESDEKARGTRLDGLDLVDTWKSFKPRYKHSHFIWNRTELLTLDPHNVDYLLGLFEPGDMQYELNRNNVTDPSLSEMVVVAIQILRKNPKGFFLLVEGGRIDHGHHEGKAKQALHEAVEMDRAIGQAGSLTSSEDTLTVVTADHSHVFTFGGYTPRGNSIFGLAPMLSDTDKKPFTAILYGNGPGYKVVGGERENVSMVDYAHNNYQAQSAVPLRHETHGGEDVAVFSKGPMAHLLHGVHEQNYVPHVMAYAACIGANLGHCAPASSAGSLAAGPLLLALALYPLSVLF

[16] = molecular target: DNA dC->dU-editing enzyme APOBEC-3G (Homo sapiens, UniProt Q9HC16); assay: Dose Response confirmation of small molecule APOBEC3G DNA Deaminase Inhibitors via a fluorescence-based single-stranded DNA deaminase assay. [Related pubchem assays (depositor defined):AID493012, AID493028]; format: functional
Chain of DNA dC->dU-editing enzyme APOBEC-3G (Q9HC16 whole entry): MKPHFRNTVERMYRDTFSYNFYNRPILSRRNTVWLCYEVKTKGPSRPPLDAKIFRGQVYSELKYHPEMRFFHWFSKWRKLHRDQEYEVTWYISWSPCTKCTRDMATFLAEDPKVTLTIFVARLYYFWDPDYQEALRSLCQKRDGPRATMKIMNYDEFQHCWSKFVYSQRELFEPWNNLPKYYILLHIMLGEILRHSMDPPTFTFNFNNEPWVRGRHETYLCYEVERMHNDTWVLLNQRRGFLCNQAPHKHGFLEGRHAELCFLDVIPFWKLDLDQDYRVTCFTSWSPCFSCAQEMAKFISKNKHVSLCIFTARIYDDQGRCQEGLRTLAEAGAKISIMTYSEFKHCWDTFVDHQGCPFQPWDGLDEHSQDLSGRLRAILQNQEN

[17] = molecular target: DNA dC->dU-editing enzyme APOBEC-3A (Homo sapiens, UniProt P31941); assay: A3A deaminase inhibition for selectivity – biochemical, dose response (AID 504722); format: functional
Chain of DNA dC->dU-editing enzyme APOBEC-3A (P31941 whole entry): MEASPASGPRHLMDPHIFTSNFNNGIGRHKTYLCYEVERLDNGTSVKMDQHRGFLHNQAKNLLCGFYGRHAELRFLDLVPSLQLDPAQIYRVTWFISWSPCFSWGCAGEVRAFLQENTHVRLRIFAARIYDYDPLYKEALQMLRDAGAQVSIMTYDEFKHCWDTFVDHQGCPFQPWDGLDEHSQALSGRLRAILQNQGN

Genome polyprotein = Genome polyprotein (dengue virus type 2, UniProt P29990); assay: flavivirus cap methylation enzyme inhibition – biochemical, confirmation dose response, primary screen (AID 588689); format: functional
[18] = molecular target: Heat shock protein HSP 90-alpha (Homo sapiens, UniProt P07900); format: functional, organism-based
[19] = molecular target: T8, Heat shock factor protein 1 (Mus musculus, UniProt P38532); assay: decrease of HSF1-responsive luciferase luminescence – cell-based, NIH3T3, dose retest, confirmation (AID 2382); format: functional;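 further: NIH3T3 fibroblasts with HSF1-driven luciferase reporter stressed by proteasome inhibitor MG132; luminescence from HSF1-driven luciferase expression after 8 hours of MG132 stress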
T8 sequence (P38532 whole entry): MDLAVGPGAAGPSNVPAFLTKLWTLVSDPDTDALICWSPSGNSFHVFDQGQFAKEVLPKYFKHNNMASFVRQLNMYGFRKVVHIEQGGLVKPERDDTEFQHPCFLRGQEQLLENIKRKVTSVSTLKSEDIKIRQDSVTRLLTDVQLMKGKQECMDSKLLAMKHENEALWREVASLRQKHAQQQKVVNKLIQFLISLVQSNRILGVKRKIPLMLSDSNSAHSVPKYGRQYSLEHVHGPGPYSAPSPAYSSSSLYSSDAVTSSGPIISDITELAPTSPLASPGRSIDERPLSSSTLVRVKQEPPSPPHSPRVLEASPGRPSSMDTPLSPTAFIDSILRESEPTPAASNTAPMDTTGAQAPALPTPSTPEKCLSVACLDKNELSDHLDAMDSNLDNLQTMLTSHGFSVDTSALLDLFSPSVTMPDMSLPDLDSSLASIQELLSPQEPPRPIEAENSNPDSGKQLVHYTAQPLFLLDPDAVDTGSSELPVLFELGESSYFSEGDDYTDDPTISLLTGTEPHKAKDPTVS

Cc1n[nH]c(C)c1N1C(=O)c2cccc3c(N4CCCCCC4)ccc(c23)C1=O
EC50 [1]: 1.04 µM (active) | AC50 (Keap1/Nrf2): 32.5 µM (active) | AC50 (ORF 73): > 350 µM (inactive) | EC50 [2]: 6.94 µM (inconclusive) | IC50 (Beta-lactamase [3]): 27.8 µM (inactive) | EC50 [4]: 1.72 µM (inconclusive) | IC50 (Beta-lactamase [5]): > 59.6 µM (inactive)

COc1cc(NS(=O)(=O)c2ccc(NC(=S)NC(=O)/C=C/c3ccco3)cc2)ncn1
IC50 (Cysteine protease ATG4B): 6 µM (active) | IC50 (SUMO-activating enzyme [6]): 26.1 µM (active) | IC50 [7]: 2.92 µM (active) | IC50 [8]: > 100 µM (inactive) | IC50 [9]: 2.15 µM (active) | AC50 (Keap1/Nrf2): > 52 µM (inactive) | IC50 (Phospholipase A2): > 80 µM (inactive) | IC50 [10]: 12.9 µM (active) | IC50 [11]: 18.4 µM (active) | AC50 [12]: 13.2 µM (active) | IC50 (Prothrombin): 20.5 µM (active) | IC50 (SUMO-activating enzyme [13]): 2.41 µM (active) | IC50 [14]: 30.4 µM (inactive) | IC50 [15]: 45.9 µM (active)

Sc1nnc(COc2ccccc2)n1/N=C/c1ccccn1
IC50 [16]: 3.99 µM (active) | IC50 [17]: > 100 µM (inactive)

COc1ccc(OC)c(N2C(=O)NC(=O)/C(=C\c3ccc([N+](=O)[O-])s3)C2=O)c1
IC50 (Genome polyprotein): 39.9 µM (active) | AC50 [18]: 4.17 µM (active) | AC50 (ORF 73): 90.7 µM (active) | EC50 [19]: > 195 µM (not active)
